Consider 52 compounds from patent publication US20260193244A1 (Protego Biopharma, Inc., priority 2022, published 2026).

Some results are limits rather than exact numbers.

For the test, the system named is IRE1-XBP1s (HEK293 T-REx cells stably expressing the XBP1-RLuc splicing reporter). Nature of the test: IRE1-XBP1s activation Assay (XBP1-RLuc splicing reporter, luminescence relative to thapsigargin, with or without IRE1 inhibitor 4μ8C). Type of test: cell-based. Conditions: 18 h, compound 10 μM, luminescence as percentage signal relative to thapsigargin (Tg) (500 nM, 18 h). On the procedure:
IRE1-XBP1s activation Assay: HEK293 T-REx cells stably expressing the XBP1-RLuc splicing reporter were treated with an IRE1-XBP1s activator provided herein (10 μM) in the presence or absence of the IRE1 active site inhibitor 4μ8C (32 μM) for 18 h. Luminescence was shown as the percentage signal relative to thapsigargin (Tg) (500 nM, 18 h).
`Cc1ccc(OCCN(C)C(=O)Cn2cc(NC(=O)OC3CCCN(c4nccc(F)n4)C3)cn2)cc1` (stereo not shown) [Compound 131, 1-(4-fluoropyrimidin-2-yl)piperidin-3-yl (1-(2-(methyl (2-(p-tolyloxy)ethyl)-amino)-2-oxoethyl)-1H-pyrazol-4-yl)carbamate] displayed an activation at 10 µM of under 30%. The value for `Cc1ccc(OCCN(C)C(=O)Cn2cc(NC(=O)COC3CCCN(c4nccc(F)n4)C3)cn2)cc1` (stereo not shown) [Compound 132] was under 30%; that for `Cc1ccc(OCCN(C)C(=O)Cn2cc(NC(=O)C3CNCC3Nc3ccnc(O)n3)cn2)cc1` (stereo not shown) [Compound 133] was under 30%. Take `Cc1ccc(OC2CCC23CN(C(=O)Cn2cc(NC(=O)CCNc4nccc(F)n4)cn2)C3)cc1` (stereo not shown) [Compound 134]: the activation at 10 µM is under 30%. Next, `Cc1ccc(OCCN(C)C(=O)Cn2cc(NC(=O)C3CC(Nc4ccncc4)C3)cn2)cc1` (stereo not shown) [Compound 135]: under 30%; `Cc1ccc(O[C@H]2CCCN(C(=O)Cn3cc(NC(=O)CCNc4nccc(F)n4)cn3)C2)cc1` [Compound 136]: under 30%; `Cc1ccc(OCCN(C)C(=O)Cn2cc(NC(=O)COC3CCCN(c4ccnc(F)n4)C3)cn2)cc1` (stereo not shown) [Compound 137]: under 30%. Next, `Cc1ccc(OCCN(C)C(=O)Cn2cc(NC(=O)C3CN(c4ccccc4)C3)cn2)cc1` [Compound 138]: under 30%; `Cc1ccc(OCCN(C)C(=O)Cn2cc(NC(=O)C3CC(Oc4ccncc4)C3)cn2)cc1` (stereo not shown) [Compound 139, N-(1-(2-(methyl (2-(p-tolyloxy)ethyl)amino)-2-oxoethyl)-1H-pyrazol-4-yl)-3-(pyridin-4-yloxy)cyclobutane-1-carboxamide]: at least 50%; `Cc1ccc(OCCN(C)C(=O)Cn2cc(NC(=O)C3CC(Oc4ccccn4)C3)cn2)cc1` (stereo not shown) [Compound 140]: at least 50%. Next, `Cc1ccc(OCCN(C)C(=O)Cn2cc(NC(=O)C3CC(Oc4ccncc4)CCO3)cn2)cc1` (stereo not shown) [Compound 141]: under 30%. `Cc1ccc(OCCN(C)C(=O)Cn2cc(NC(=O)C3CC(Oc4cccc(C)n4)C3)cn2)cc1` (stereo not shown) [Compound 142] yielded an activation at 10 µM of under 30%.

On to `Cc1ccc(OC2CCC23CN(C(=O)Cn2cc(NC(=O)C4CC(Oc5ccncc5)C4)cn2)C3)cc1` (stereo not shown) [Compound 144], for which the activation at 10 µM was at least 50%. Next, `O=C(Cn1cc(NC(=O)[C@H]2C[C@H](Oc3ccccn3)C2)cn1)N1CCC[C@H](Oc2ccc(C(F)(F)F)cn2)C1` [Compound 145]: under 30%; `Cc1ccc(O[C@H]2CCCN(C(=O)Cn3cc(NC(=O)COc4ccccc4)cn3)C2)cc1` [Compound 146, N-[1-[2-[(3S)-3-(4-methylphenoxy)-1-piperidyl]-2-oxo-ethyl]pyrazol-4-yl]-2-phenoxy-acetamide]: under 30%. Next, `Cc1ccc(O[C@H]2CCCN(C(=O)Cn3cc(NC(=O)C4COc5ccccc5O4)cn3)C2)cc1` (stereo partly shown) [Compound 147]: under 30%; `Cc1ccc(O[C@H]2CCCN(C(=O)Cn3cc(NC(=O)COc4cccnc4)cn3)C2)cc1` [Compound 149]: under 30%. Take `Cc1ccc(O[C@H]2CCCN(C(=O)Cn3cc(NC(=O)COc4ccccn4)cn3)C2)cc1` [Compound 150]: the activation at 10 µM is under 30%. Next, `Cc1ccc(O[C@H]2CCCN(C(=O)Cn3cc(NC(=O)C4CC(Oc5cccc(C)n5)C4)cn3)C2)cc1` (stereo partly shown) [Compound 151]: under 30%.

In turn, `Cc1ccc(O[C@H]2CCCN(C(=O)Cn3cc(NC(=O)C4CC(Oc5ccncc5)C4)cn3)C2)cc1` (stereo partly shown) [Compound 152] gave an activation at 10 µM of at least 50%. As to `Cc1ccc(OCCN(C)C(=O)Cn2cc(NC(=O)c3nc4ccccc4o3)cn2)cc1` [Compound 153], the activation at 10 µM lay in the range of 30 to 50%. The compound `Cc1ccc(OCCN(C)C(=O)Cn2cc(NC(=O)C3COc4ccccc4O3)cn2)cc1` (stereo not shown) [Compound 154] registered an activation at 10 µM of at least 50%.

Take `Cc1ccc(O[C@H]2CCCN(C(=O)Cn3cc(NC(=O)C4COc5ccccc5N4)cn3)C2)cc1` (stereo partly shown) [Compound 155]: the activation at 10 µM was under 30%.

In turn, `Cc1ccc(OCCN(C)C(=O)Cn2cc(NC(=O)[C@@H]3COc4ccccc4O3)cn2)cc1` [Compound 156] yielded an activation at 10 µM of under 30%. The value for `COc1ncc(Cl)cc1NCCC(=O)Nc1cnn(CC(=O)N2CCC[C@H](Oc3ccc(C)cc3)C2)c1` [Compound 157] was at least 50%; that for `COc1ncc(Cl)cc1NCCC(=O)Nc1cnn(CC(=O)N2CCC[C@@H](Oc3ccc(C)cc3)C2)c1` [Compound 158] was under 30%. Next, `Cc1ccc(O[C@H]2CCCN(C(=O)Cn3cc(NC(=O)CCOc4c(F)ccnc4C(C)C)cn3)C2)cc1` [Compound 159, (S)-3-((4-fluoro-2-isopropylpyridine-3-yl)oxy)-N-(1-(2-oxo-2-(3-(p-tolyloxy)piperidin-1-yl)ethyl)-1H-pyrazol-4-yl)propanamide]: at least 50%; `CC(C)c1cncc(F)c1OCCC(=O)Nc1cnn(CC(=O)N2CCC[C@H](Oc3ccc(OC(F)(F)F)cn3)C2)c1` [Compound 160]: 30 to 50%. In turn, `CC(C)c1cncc(F)c1OCCC(=O)Nc1cnn(CC(=O)N2CCC[C@H](Oc3ccc(C(F)(F)F)cn3)C2)c1` [Compound 161] showed an activation at 10 µM of at least 50%.

Turning to `Cc1ccc(OCCN(C)C(=O)Cn2cc(NC(=O)[C@H]3C[C@H](Oc4c(F)cncc4C(C)C)C3)cn2)cc1` [Compound 162], the activation at 10 µM was under 30%. The value for `Cc1ccc(OC2CCC23CN(C(=O)Cn2cc(NC(=O)C4CC(Oc5c(F)cncc5C(C)C)C4)cn2)C3)cc1` (stereo not shown) [Compound 163] was at least 50%; that for `Cc1ccc(O[C@H]2CCCN(C(=O)Cn3cc(NC(=O)CCOc4ncncc4N)cn3)C2)cc1` [Compound 164, (S)-3-((5-aminopyrimidin-4-yl)oxy)-N-(1-(2-oxo-2-(3-(p-tolyloxy)piperidin-1-yl)ethyl)-1H-pyrazol-4-yl)propanamide] was at least 50%. Next, `Cc1ccc(O[C@H]2CCCN(C(=O)Cn3cc(NC(=O)CCOc4c(Br)cncc4[N+](=O)[O-])cn3)C2)cc1` [Compound 165]: at least 50%; `Cc1ccc(OCCN(C)C(=O)Cn2cc(NC(=O)C3CCCC3Nc3ccnc(F)n3)cn2)cc1` (stereo not shown) [Compound 166]: under 30%. In turn, `Cc1ccc(OCCN(C)C(=O)Cn2cc(NC(=O)C3CCC3Nc3ccnc(F)n3)cn2)cc1` (stereo not shown) [Compound 167] yielded an activation at 10 µM of 30 to 50%. The value for `Cc1ccc(OCCN(C)C(=O)Cn2cc(NC(=O)C34CC(Nc5ncc(F)cn5)(C3)C4)cn2)cc1` [Compound 169, 3-[(5-fluoropyrimidin-2-yl)amino]-N-[1-[2-[methyl-[2-(4-methylphenoxy)ethyl]amino]-2-oxo-ethyl]pyrazol-4-yl]bicyclo[1.1.1]pentane-1-carboxamide] was under 30%. The value for `Cc1ccc(OCCN(C)C(=O)Cn2cc(NC(=O)C3CC(Nc4ncc(F)cn4)C3)cn2)cc1` (stereo not shown) [Compound 170] was under 30%; that for `Cc1ccc(OC2CCCCN(C(=O)Cn3cc(NC(=O)CCNc4ccnc(F)n4)cn3)C2)cc1` (stereo not shown) [Compound 171, 3-[(2-fluoropyrimidin-4-yl)amino]-N-[1-[2-[3-(4-methylphenoxy)azepan-1-yl]-2-oxo-ethyl]pyrazol-4-yl]propanamide] was under 30%; that for `Cc1ccc(OC2CCCN(C(=O)Cn3cc(NC(=O)CCNc4ccnc(F)n4)cn3)CC2)cc1` (stereo not shown) [Compound 172] was under 30%. Next, `Cc1c(F)cc(O[C@@H]2CCCN(C(=O)Cn3cc(NC(=O)CCNc4ccnc(F)n4)cn3)C2)cc1F` [Compound 173]: 30 to 50%; `Cc1ccc(OC2CC3CC2N(C(=O)Cn2cc(NC(=O)CCNc4ccnc(F)n4)cn2)C3)cc1` (stereo not shown) [Compound 174]: under 30%; `Cc1ccc(OC2CCC3(C2)CN(C(=O)Cn2cc(NC(=O)CCNc4ccnc(F)n4)cn2)C3)cc1` (stereo not shown) [Compound 175]: under 30%. As to `Cc1ccc(O[C@@H]2CCCN(C(=O)Cn3cc(NC(=O)CCNc4ccnc(F)n4)cn3)C2)cc1` [Compound 176], the activation at 10 µM lay in the range of 30 to 50%. Next, `Cc1ccc(OC2CCC23CN(C(=O)Cn2cc(NC(=O)CCNc4ccnc(F)n4)cn2)C3)cc1` (stereo not shown) [Compound 177]: at least 50%; `Cc1ccc(O[C@H]2CCCN(C(=O)Cn3cc(NC(=O)CCNc4ccnc(F)n4)cn3)C2)cc1` [Compound 178]: at least 50%; `O=C(CCNc1ccnc(F)n1)Nc1cnn(CC(=O)N2CCC[C@H](Oc3ccc(C(F)F)cc3)C2)c1` [Compound 179]: at least 50%.

The compound `Cc1c(F)cc(O[C@H]2CCCN(C(=O)Cn3cc(NC(=O)CCNc4ccnc(F)n4)cn3)C2)cc1F` [Compound 180] showed an activation at 10 µM of at least 50%. Next, `Cc1ccc(OC2CC3(C2)CN(C(=O)Cn2cc(NC(=O)CCNc4ccnc(F)n4)cn2)C3)cc1` [Compound 181]: under 30%. Next, `Cc1ccc(O[C@H]2CCCN(C(=O)Cn3cc(NC(=O)CCNc4c(F)cncc4Cl)cn3)C2)cc1` [Compound 183]: at least 50%. The value for `Cc1ccc(O[C@@H]2CCCN(C(=O)Cn3cc(NC(=O)CCNc4c(F)cncc4Cl)cn3)C2)cc1` [Compound 184] was at least 50%; that for `Cc1ccc(O[C@H]2CCCN(C(=O)Cn3cc(NC(=O)[C@@H]4COc5ccccc5O4)cn3)C2)cc1` [Compound 185] was under 30%.

As to `O=C(CCNc1ccnc(F)n1)Nc1cnn(CC(=O)N2CCC[C@@H](Oc3ccc(C(F)F)cc3)C2)c1` [Compound 187], the activation at 10 µM was under 30%.
